Reference: patent US8222404B2, “[1,2,4]Thiadiazin-3-yl acetic acid compound and methods of making the acetic acid compound” (Anadys Pharmaceuticals, Inc., priority 2008, dated 2012)

tested on: HCV Huh-luc/neo-ET replicon cells; test: Luciferase-Based HCV Replicon Assay (EC50 (1b)); format: cell-based; conditions: Hepatitis C virus, 72 hours exposure, luciferase activity
Method: Luciferase-Based HCV Replicon Assay Protocol (EC50 (1b))
The cell culture component of the assay was performed essentially as described by Bartenschlager et al., Hepatology 2002, 35, 694-703, wherein exponentially growing HCV Huh-luc/neo-ET replicon cells were seeded at 6×10^3 cells/well in 96 well assay plate. 24 hours later the cells were treated with various concentrations of compound in triplicate. After 72 hours exposure to the compound, the luciferase activity in the wells was determined using Bright-Glo reagent (Promega, Madison, Wis.) with a luminometer (Wallac 1420 Multilabel HTS Counter Victor 2). The background control was replicon cells treated with 100 nM BILN-2061, an inhibitor of the HCV protease. % Inhibition was determined for each compound concentration in relation to the negative (no compound) control to calculate the EC50 (1b).

SMILES	EC50 [nM]
CS(=O)(=O)NCc1csc2c1S(=O)(=O)N=C(C1=C(O)C3CCCC3N(Cc3ccc(F)cc3)C1=O)N2 (racemic) [Example 2, (rac-cis)-N-{3-[1-(4-Fluoro-benzyl)-4-hydroxy-2-oxo-2,4a,5,6,7,7a-hexahydro-1H-[1]pyrindin-3-yl]-1,1-dioxo-1,4-dihydro-1λ^6-thieno[2,3-e][1,2,4]thiadiazin-7-ylmethyl}-methanesulfonamide]	5 to 20
CS(=O)(=O)NCc1csc2c1S(=O)(=O)N=C(C1=C(O)CC(C3CC3)N(Cc3ccc(F)cc3)C1=O)N2 (racemic) [Example 4, rac-N-{3-[6-Cyclopropyl-1-(4-fluoro-benzyl)-4-hydroxy-2-oxo-1,2,5,6-tetrahydro-pyridin-3-yl]-1,1-dioxo-1,4-dihydro-1λ^6-thieno[2,3-e][1,2,4]thiadiazin-7-ylmethyl}-methanesulfonamide]	100 to 1000
CCCC1CC(O)=C(C2=NS(=O)(=O)c3c(CNS(C)(=O)=O)csc3N2)C(=O)N1Cc1ccc(F)cc1 (racemic) [Example 5, rac-N-{3-[1-(4-Fluoro-benzyl)-4-hydroxy-2-oxo-6-propyl-1,2,5,6-tetrahydro-pyridin-3-yl]-1,1-dioxo-1,4-dihydro-1λ^6-thieno[2,3-e][1,2,4]thiadiazin-7-ylmethyl}-methanesulfonamide]	100 to 1000
CS(=O)(=O)NCc1csc2c1S(=O)(=O)N=C(C1=C(O)CC(C3CCC3)N(Cc3ccc(F)cc3)C1=O)N2 (racemic) [Example 6, rac-N-{3-[6-Cyclobutyl-1-(4-fluoro-benzyl)-4-hydroxy-2-oxo-1,2,5,6-tetrahydro-pyridin-3-yl]-1,1-dioxo-1,4-dihydro-1λ^6-thieno[2,3-e][1,2,4]thiadiazin-7-ylmethyl}-methanesulfonamide]	100 to 1000
CC(C)CC1CC(O)=C(C2=NS(=O)(=O)c3c(CNS(C)(=O)=O)csc3N2)C(=O)N1Cc1ccc(F)cc1 (racemic) [Example 7, rac-N-{3-[1-(4-Fluoro-benzyl)-4-hydroxy-6-isobutyl-2-oxo-1,2,5,6-tetrahydro-pyridin-3-yl]-1,1-dioxo-1,4-dihydro-1λ^6-thieno[2,3-e][1,2,4]thiadiazin-7-ylmethyl}-methanesulfonamide]	100 to 1000
CC(C)C1CC(O)=C(C2=NS(=O)(=O)c3c(CNS(C)(=O)=O)csc3N2)C(=O)N1Cc1ccc(F)cc1 (racemic) [Example 8, rac-N-{3-[1-(4-Fluoro-benzyl)-4-hydroxy-6-isopropyl-2-oxo-1,2,5,6-tetrahydro-pyridin-3-yl]-1,1-dioxo-1,4-dihydro-1λ^6-thieno[2,3-e][1,2,4]thiadiazin-7-ylmethyl}-methanesulfonamide]	20 to 100
CS(=O)(=O)NCc1csc2c1S(=O)(=O)N=C(C1=C(O)CC(C3CCCC3)N(Cc3ccc(F)cc3)C1=O)N2 (racemic) [Example 9, rac-N-{3-[6-Cyclopentyl-1-(4-fluoro-benzyl)-4-hydroxy-2-oxo-1,2,5,6-tetrahydro-pyridin-3-yl]-1,1-dioxo-1,4-dihydro-1λ^6-thieno[2,3-e][1,2,4]thiadiazin-7-ylmethyl}-methanesulfonamide]	100 to 1000
CC1CN(Cc2ccc(F)cc2)C(=O)C(C2=NS(=O)(=O)c3c(CNS(C)(=O)=O)csc3N2)=C1O (racemic) [Example 10, rac-N-{3-[1-(4-Fluoro-benzyl)-4-hydroxy-5-methyl-2-oxo-1,2,5,6-tetrahydro-pyridin-3-yl]-1,1-dioxo-1,4-dihydro-1λ^6-thieno[2,3-e][1,2,4]thiadiazin-7-ylmethyl}-methanesulfonamide]	100 to 1000
CS(=O)(=O)NCc1csc2c1S(=O)(=O)N=C(C1=C(O)C(Cc3ccccc3)CN(Cc3ccc(F)cc3)C1=O)N2 (racemic) [Example 12, rac-N-{3-[5-Benzyl-1-(4-fluoro-benzyl)-4-hydroxy-2-oxo-1,2,5,6-tetrahydro-pyridin-3-yl]-1,1-dioxo-1,4-dihydro-1λ^6-thieno[2,3-e][1,2,4]thiadiazin-7-ylmethyl}-methanesulfonamide]	> 1000
CC(C)C1CN(Cc2ccc(F)cc2)C(=O)C(C2=NS(=O)(=O)c3c(CNS(C)(=O)=O)csc3N2)=C1O (racemic) [Example 13, rac-N-{3-[1-(4-Fluoro-benzyl)-4-hydroxy-5-isopropyl-2-oxo-1,2,5,6-tetrahydro-pyridin-3-yl]-1,1-dioxo-1,4-dihydro-1λ^6-thieno[2,3-e][1,2,4]thiadiazin-7-ylmethyl}-methanesulfonamide]	100 to 1000
CC(C)(C)C1CN(Cc2ccc(F)cc2)C(=O)C(C2=NS(=O)(=O)c3c(CNS(C)(=O)=O)csc3N2)=C1O (racemic) [Example 14, rac-N-{3-[5-tert-Butyl-1-(4-fluoro-benzyl)-4-hydroxy-2-oxo-1,2,5,6-tetrahydro-pyridin-3-yl]-1,1-dioxo-1,4-dihydro-1λ^6-thieno[2,3-e][1,2,4]thiadiazin-7-ylmethyl}-methanesulfonamide]	5 to 20
CCCC1CN(Cc2ccc(F)cc2)C(=O)C(C2=NS(=O)(=O)c3c(CNS(C)(=O)=O)csc3N2)=C1O (racemic) [Example 15, rac-N-{3-[1-(4-Fluoro-benzyl)-4-hydroxy-2-oxo-5-propyl-1,2,5,6-tetrahydro-pyridin-3-yl]-1,1-dioxo-1,4-dihydro-1λ^6-thieno[2,3-e][1,2,4]thiadiazin-7-ylmethyl}-methanesulfonamide]	100 to 1000
CS(=O)(=O)NCc1csc2c1S(=O)(=O)N=C(C1=C(O)C(C3CCCC3)CN(Cc3ccc(F)cc3)C1=O)N2 (racemic) [Example 16, rac-N-{3-[5-Cyclopentyl-1-(4-fluoro-benzyl)-4-hydroxy-2-oxo-1,2,5,6-tetrahydro-pyridin-3-yl]-1,1-dioxo-1,4-dihydro-1λ^6-thieno[2,3-e][1,2,4]thiadiazin-7-ylmethyl}-methanesulfonamide]	20 to 100
CC(C)CC1CN(Cc2ccc(F)cc2)C(=O)C(C2=NS(=O)(=O)c3c(CNS(C)(=O)=O)csc3N2)=C1O (racemic) [Example 17, rac-N-{3-[1-(4-Fluoro-benzyl)-4-hydroxy-5-isobutyl-2-oxo-1,2,5,6-tetrahydro-pyridin-3-yl]-1,1-dioxo-1,4-dihydro-1λ^6-thieno[2,3-e][1,2,4]thiadiazin-7-ylmethyl}-methanesulfonamide]	100 to 1000
CCC1CN(Cc2ccc(F)cc2)C(=O)C(C2=NS(=O)(=O)c3c(CNS(C)(=O)=O)csc3N2)=C1O (racemic) [Example 18, rac-N-{3-[5-Ethyl-1-(4-fluoro-benzyl)-4-hydroxy-2-oxo-1,2,5,6-tetrahydro-pyridin-3-yl]-1,1-dioxo-1,4-dihydro-1λ^6-thieno[2,3-e][1,2,4]thiadiazin-7-ylmethyl}-methanesulfonamide]	100 to 1000
CC(C)CCC1(C)CN(C2CC2)C(=O)C(C2=NS(=O)(=O)c3c(CNS(C)(=O)=O)csc3N2)=C1O (racemic) [Example 19, rac-N-{3-[1-Cyclopropyl-4-hydroxy-5-methyl-5-(3-methyl-butyl)-2-oxo-1,2,5,6-tetrahydro-pyridin-3-yl]-1,1-dioxo-1,4-dihydro-1λ^6-thieno[2,3-e][1,2,4]thiadiazin-7-ylmethyl}-methanesulfonamide]	100 to 1000
